Measurements: ChEMBL document CHEMBL5226390, “Synthesis and Structure-Activity Analysis of Icaritin Derivatives as Potential Tumor Growth Inhibitors of Hepatocellular Carcinoma Cells” (J Nat Prod, 2023)

How the values were obtained:
Assay type in all cases: functional, cell-based; call rule not given here
[1] = system: SMMC-7721; experiment: Antiproliferative activity against human SMMC-7721 cells assessed as reduction in cell viability incubated for 48 hrs by MTT assay
[2] = system: Hep 3B2; experiment: Antiproliferative activity against human Hep3B cells assessed as reduction in cell viability incubated for 48 hrs by MTT assay
[3] = system: HepG2; experiment: Antiproliferative activity against human HepG2 cells assessed as reduction in cell viability incubated for 48 hrs by MTT assay; conditions: HepG2, 48 h
[4] = Homo sapiens, SMMC-7721, 48 h, read-out: IC50

SMILES	IC50 ([1]; smmc-7721)	IC50 [2]	IC50 [3]	IC50 [1, 4]
COc1ccc(-c2oc3c(CC=C(C)C)c(OCCOCCN4CCNCC4)cc(O)c3c(=O)c2O[C@H]2O[C@H](C)[C@@H](O)[C@H](O)[C@@H]2O)cc1	Not Active	> 10 µM	> 10 µM	
COc1ccc(-c2oc3c(CC=C(C)C)c(OCCOCCN4CCCC4)cc(O)c3c(=O)c2O[C@H]2O[C@H](C)[C@@H](O)[C@H](O)[C@@H]2O)cc1		6.4 µM	8.6 µM	8.6 µM
COc1ccc(-c2oc3c(CC=C(C)C)c(OC[C@H](O)CN4CCCC4)cc(O)c3c(=O)c2O[C@H]2O[C@H](C)[C@@H](O)[C@H](O)[C@@H]2O)cc1		> 10 µM	> 10 µM	> 10 µM
CNC(=O)c1cc(Oc2ccc(NC(=O)Nc3ccc(Cl)c(C(F)(F)F)c3)cc2)ccn1 [SORAFENIB]		7.7 µM	5.5 µM	8.8 µM
COc1ccc(-c2oc3c(CC=C(C)C)c(OCCCCN4CCOCC4)cc(O)c3c(=O)c2O[C@H]2O[C@H](C)[C@@H](O)[C@H](O)[C@@H]2O)cc1	Not Active	> 10 µM	> 10 µM	
COc1ccc(-c2oc3c(CC=C(C)C)c(OCCOCCN4CCC(O)CC4)cc(O)c3c(=O)c2O[C@H]2O[C@H](C)[C@@H](O)[C@H](O)[C@@H]2O)cc1	Not Active	> 10 µM	> 10 µM	
COc1ccc(-c2oc3c(CC=C(C)C)c(OCCCN4CCC(N5CCCCC5)CC4)cc(O)c3c(=O)c2O[C@H]2O[C@H](C)[C@@H](O)[C@H](O)[C@@H]2O)cc1		5.6 µM	6.6 µM	> 10 µM
COc1ccc(-c2oc3c(CC=C(C)C)c(OCCCN4CCCC4)cc(O)c3c(=O)c2O[C@H]2O[C@H](C)[C@@H](O)[C@H](O)[C@@H]2O)cc1		7.6 µM	6.3 µM	6.1 µM
COc1ccc(-c2oc3c(CC=C(C)C)c(OCCCCCC(=O)NO)cc(O)c3c(=O)c2O[C@H]2O[C@H](C)[C@@H](O)[C@H](O)[C@@H]2O)cc1		> 10 µM	> 10 µM	> 10 µM
COc1ccc(-c2oc3c(CC=C(C)C)c(OCCCCC(=O)NO)cc(O)c3c(=O)c2O[C@H]2O[C@H](C)[C@@H](O)[C@H](O)[C@@H]2O)cc1		> 10 µM	> 10 µM	> 10 µM
COc1ccc(-c2oc3c(CC=C(C)C)c(OCCCN4CCNCC4)cc(O)c3c(=O)c2O[C@H]2O[C@H](C)[C@@H](O)[C@H](O)[C@@H]2O)cc1	Not Active	3.8 µM	> 10 µM	
CCCCN(CCCC)CCOc1cc(O)c2c(=O)c(O[C@H]3O[C@H](C)[C@@H](O)[C@H](O)[C@@H]3O)c(-c3ccc(OC)cc3)oc2c1CC=C(C)C	Not Active	> 10 µM	> 10 µM	
COc1ccc(-c2oc3c(CC=C(C)C)c(OCCCCN4CCNCC4)cc(O)c3c(=O)c2O[C@H]2O[C@H](C)[C@@H](O)[C@H](O)[C@@H]2O)cc1	Not Active	8 µM	7.4 µM	
COc1ccc(-c2oc3c(CC=C(C)C)c(OCCOCCOCCN4CCCC4)cc(O)c3c(=O)c2O[C@H]2O[C@H](C)[C@@H](O)[C@H](O)[C@@H]2O)cc1		> 10 µM	> 10 µM	> 10 µM
COc1ccc(-c2oc3c(CC=C(C)C)c(OCCCC(=O)NO)cc(O)c3c(=O)c2O[C@H]2O[C@H](C)[C@@H](O)[C@H](O)[C@@H]2O)cc1		> 10 µM	> 10 µM	> 10 µM
COc1ccc(-c2oc3c(CC=C(C)C)c(OCCCCN4CCCC4)cc(O)c3c(=O)c2O[C@H]2O[C@H](C)[C@@H](O)[C@H](O)[C@@H]2O)cc1		4 µM	3 µM	> 10 µM
COc1ccc(-c2oc3c(CC=C(C)C)c(OCCOCCOCCOCCN4CCCC4)cc(O)c3c(=O)c2O[C@H]2O[C@H](C)[C@@H](O)[C@H](O)[C@@H]2O)cc1		9.8 µM	> 10 µM	> 10 µM
COc1ccc(-c2oc3c(CC=C(C)C)c(OCCCN4CCC(O)CC4)cc(O)c3c(=O)c2O[C@H]2O[C@H](C)[C@@H](O)[C@H](O)[C@@H]2O)cc1	Not Active	8.6 µM	> 10 µM	
COc1ccc(-c2oc3c(CC=C(C)C)c(OCCN)cc(O)c3c(=O)c2O[C@H]2O[C@H](C)[C@@H](O)[C@H](O)[C@@H]2O)cc1	Not Active	> 10 µM	> 10 µM	

SMILES	IC50 ([1]; smmc-7721)	IC50 [2]	IC50 [3]	IC50 [1, 4]
CCN(CC)CCOCCOCCOCCOc1cc(O)c2c(=O)c(O[C@H]3O[C@H](C)[C@@H](O)[C@H](O)[C@@H]3O)c(-c3ccc(OC)cc3)oc2c1CC=C(C)C		7.2 µM	7.1 µM	> 10 µM
CCN(CC)CCOc1cc(O)c2c(=O)c(O[C@H]3O[C@H](C)[C@@H](O)[C@H](O)[C@@H]3O)c(-c3ccc(OC)cc3)oc2c1CC=C(C)C	Not Active	> 10 µM	> 10 µM	
COc1ccc(-c2oc3c(CC=C(C)C)c(OCCCN)cc(O)c3c(=O)c2O[C@H]2O[C@H](C)[C@@H](O)[C@H](O)[C@@H]2O)cc1	Not Active	> 10 µM	> 10 µM	
COc1ccc(-c2oc3c(CC=C(C)C)c(OCCN4CCOCC4)cc(O)c3c(=O)c2O[C@H]2O[C@H](C)[C@@H](O)[C@H](O)[C@@H]2O)cc1	Not Active	6.1 µM	> 10 µM	
COc1ccc(-c2oc3c(CC=C(C)C)c(OCCCCN4CCC(O)CC4)cc(O)c3c(=O)c2O[C@H]2O[C@H](C)[C@@H](O)[C@H](O)[C@@H]2O)cc1		5.7 µM	6.5 µM	7.1 µM
COc1ccc(-c2oc3c(CC=C(C)C)c(OCCCCN4CCC(N5CCCCC5)CC4)cc(O)c3c(=O)c2O[C@H]2O[C@H](C)[C@@H](O)[C@H](O)[C@@H]2O)cc1		3.9 µM	7.6 µM	6.4 µM
COc1ccc(-c2oc3c(CC=C(C)C)c(OCCN4CCNCC4)cc(O)c3c(=O)c2O[C@H]2O[C@H](C)[C@@H](O)[C@H](O)[C@@H]2O)cc1	Not Active	> 10 µM	> 10 µM	
CCCCN(CCCC)CCCOc1cc(O)c2c(=O)c(O[C@H]3O[C@H](C)[C@@H](O)[C@H](O)[C@@H]3O)c(-c3ccc(OC)cc3)oc2c1CC=C(C)C	Not Active	9.3 µM	> 10 µM	
COc1ccc(-c2oc3c(CC=C(C)C)c(OCCCCCCN4CCCC4)cc(O)c3c(=O)c2O[C@H]2O[C@H](C)[C@@H](O)[C@H](O)[C@@H]2O)cc1		7.6 µM	2.5 µM	4.8 µM
COc1ccc(-c2oc3c(CC=C(C)C)c(OCCN(C)C)cc(O)c3c(=O)c2O[C@H]2O[C@H](C)[C@@H](O)[C@H](O)[C@@H]2O)cc1	Not Active	> 10 µM	9.2 µM	
COc1ccc(-c2oc3c(CC=C(C)C)c(OCCCCN)cc(O)c3c(=O)c2O[C@H]2O[C@H](C)[C@@H](O)[C@H](O)[C@@H]2O)cc1		4.9 µM	4.7 µM	> 10 µM
COc1ccc(-c2oc3c(CC=C(C)C)c(OCCN4CCC(C)CC4)cc(O)c3c(=O)c2O[C@H]2O[C@H](C)[C@@H](O)[C@H](O)[C@@H]2O)cc1	Not Active	> 10 µM	> 10 µM	
COc1ccc(-c2oc3c(CC=C(C)C)c(OCCCCN4CCC(C)CC4)cc(O)c3c(=O)c2O[C@H]2O[C@H](C)[C@@H](O)[C@H](O)[C@@H]2O)cc1	Not Active	> 10 µM	> 10 µM	
CCCCN(CCCC)CCCCOc1cc(O)c2c(=O)c(O[C@H]3O[C@H](C)[C@@H](O)[C@H](O)[C@@H]3O)c(-c3ccc(OC)cc3)oc2c1CC=C(C)C	Not Active	> 10 µM	9.8 µM	
CCN(CC)CCCCOc1cc(O)c2c(=O)c(O[C@H]3O[C@H](C)[C@@H](O)[C@H](O)[C@@H]3O)c(-c3ccc(OC)cc3)oc2c1CC=C(C)C		5.4 µM	3.8 µM	6.4 µM
COc1ccc(-c2oc3c(CC=C(C)C)c(OCCCCN(C)C)cc(O)c3c(=O)c2O[C@H]2O[C@H](C)[C@@H](O)[C@H](O)[C@@H]2O)cc1	Not Active	8.7 µM	> 10 µM	
COc1ccc(-c2oc3c(CC=C(C)C)c(OCCN4CCC(N5CCCCC5)CC4)cc(O)c3c(=O)c2O[C@H]2O[C@H](C)[C@@H](O)[C@H](O)[C@@H]2O)cc1	Not Active	> 10 µM	> 10 µM	
COc1ccc(-c2oc3c(CC=C(C)C)c(OC[C@H](O)CN(C)C)cc(O)c3c(=O)c2O[C@H]2O[C@H](C)[C@@H](O)[C@H](O)[C@@H]2O)cc1		> 10 µM	> 10 µM	> 10 µM
